Test results published in publication PMC12992715, “Dual interference with host neuropeptide signaling allows parasitoid wasp to hijack host sugar metabolism” (The EMBO Journal, 2025).
No end group written: not given here.

How the values were obtained:
PxsNPFR [1] = test: qPCR of PxHK / PxGP upon synthetic sNPF with dsPxsNPFR treatment; type: in vivo, Plutella xylostella; conditions: non-parasitised larvae, 3L, 0.5 ng sPxsNPF-1 + dsPxsNPFR; n = 6-7; words
From the text: (§1) To analyse gene expression in different tissues, P. xylostella larvae were dissected under the microscope, followed by the collection of the silk gland, fat body, midgut, haemocytes and central nervous system (CNS, brain and ventral nerve cord). Haemocytes were collected on clean Parafilm membranes with capillaries by bleeding the larvae from a cut proleg. To explore gene expression at different instars of parasitised or non-parasitised larvae, non-parasitised larva was isolated individually using RNA-easy Isolation Reagent (Vazyme). Parasitoid larvae were removed before parasitised hosts were isolated. As for the measurement of other experiments, per larva with different treatments was isolated individually using RNA-easy Isolation Reagent according to the manufacturer’s instructions.
The quality and concentrations of total RNAs were estimated by electrophoresis and NanoDrop 2000 spectrophotometer (Thermo Fisher Scientific). […] Relative gene expression levels were calculated using the 2^−ΔΔCt method. […]
DNA fragments of ∼500 bp in size were amplified by PCR. […] Synthetic dsRNA was confirmed by an agarose gel, and the concentration was determined by NanoDrop2000 spectrophotometer (Thermo Scientific). About 500 ng of dsRNA was injected into P. xylostella larvae 72 h post-parasitisation, and the RNAi efficiency was detected 48 h post-injection by qPCR. […]

PxsNPFR [2] = test: Intracellular Ca2+ mobilisation (Fura-2/AM) in PxsNPFR-expressing HEK293 cells; type: cell-based, Plutella xylostella; conditions: 2.5 μM Fura-2/AM, excitation 340/380 nm, 37 °C, result in words
Protocol: To establish a stable HEK293/PxsNPFR cell line, the pcDNA 3.1^(+)/PxsNPFR plasmid was transfected into the HEK293 cells using Lipofectamine 3000 (Invitrogen). Two days later, 800 μg/ml G418 (Sangon Biotech) was added to the culture medium to select cells that stably expressed the receptor. After three weeks, resistant clones were trypsinised in cloning cylinders and transferred to 12-well plastic plates for expansion.
To measure the intracellular calcium flux, the transfected cells HEK293/PxsNPFR were harvested with PBS solution containing 0.02% EDTA, rinsed twice with PBS, and resuspended in Hanks’ balanced salt solution containing 0.025% BSA. Cells were then loaded with 2.5 μM Fura-2/AM (Dojindo) for 30 min at 37 °C and washed twice in Hanks’ balanced saline solution. These cells were stimulated with the indicated concentrations of synthetic sNPF, and Hanks’ solution was used as a negative control. The calcium flux was measured using excitation at 340 nm and 380 nm on a SpectraMax iD5 Multi-Mode Microplate Reader (Molecular Devices) at 37 °C.

PxsNPFR [3] = test: cAMP-Glo assay: inhibition of forskolin-induced cAMP accumulation in PxsNPFR-expressing HEK293 cells; type: cell-based, Plutella xylostella
Protocol: Cells were treated with 10 μM forskolin and various concentrations of the indicated peptide for 15 min at 37 °C (n = 3). […] Data are represented as mean ± SEM. *P<0.05, **P< 0.01, ***P< 0.005, not shown P > 0.05. […] (A) Two-tailed unpaired Student’s t test; (B–H) one-way ANOVA and Tukey’s multiple comparison tests.
Measurement of cyclic AMP in the HEK293/PxsNPFR cell line was accomplished with the cAMP-Glo™ Assay (Promega) according to the manufacturer’s instructions. Cells were seeded into the 96-well tissue culture plate (Thermo) overnight to grow at a recommended cell density (2500-10,000 cells/well). For the assay, cells were washed three times with PBS and then stimulated with 10 μM forskolin (Beyotime, added with 500 μM IBMX, Sigma-Aldrich) alone or 10 μM forskolin (added with 500 μM IBMX) with the indicated concentrations of synthetic sNPF for 15 min at room temperature. To generate a cAMP standard curve, cAMP standards supplied with the kit were prepared in a separate 96-well. Chemiluminescent signals were measured for 1 s/well on a SpectraMax iD5 Multi-Mode Microplate Reader (Molecular Devices).

[4] = system: P. xylostella fat body and midgut transcriptome; test: RNA sequencing of fat body and midgut after injection of sPxsNPF-1 or sCvsNPF; type: in vivo, Plutella xylostella
Protocol: The fat body and midgut of the 4 M instar P. xylostella larvae were dissected under the microscope in PBS on ice. Total RNA was isolated using an RNA isolater Total RNA Extraction Reagent (Vazyme) according to the manufacturer’s instructions. The quality and the concentration of the isolated total RNA were estimated by electrophoresis and a NanoDrop 2000. The transcriptome sequencing was performed at Annoroad Gene Technology. cDNA libraries for transcriptome sequencing made from the total RNA were prepared using the NEBNext Ultra RNA Library Prep Kit for Illumina in conjunction with the NEBNext Poly (A) mRNA Magnetic Isolation Module. Libraries were validated and quantified before being pooled and sequenced on an Illumina HiSeq 2000 (Illumina) sequencer with a 150 bp paired-end protocol. The raw reads were filtered by removing adaptor sequences, empty reads and low-quality sequences (reads with unknown sequences ‘N’). Sequences were de novo assembled using Trinity on a Galaxy Portal, and both ends were sequenced. The fragments per kilobase of transcript per million mapped reads (FPKM) method was used to analyse the expression profiles of all unigenes in different samples. Read counts were input into DESeq2 to calculate differential gene expression and statistical significance. […]

P. xylostella larvae = test: Circulating haemolymph trehalose after injection of synthetic sNPF peptides, venom, CvBV or teratocyte content; type: in vivo, Plutella xylostella; conditions: words
Protocol: (§2) Microinjections were performed under a Stemi 2000C microscope (Zeiss) using glass capillary injection needles and an Eppendorf Femtojet (Eppendorf) with a microcontroller (Narishige). To confirm the function of bovine insulin on hosts, 1 μg bovine insulin (Sigma-Aldrich, I0305000) was injected into the middle 3rd instar P. xylostella larvae. To identify the effect of each parasitic factor on hosts, 0.05 FE CvBV or 0.05 VRE venom was injected into the abdomen of the middle 3rd instar P. xylostella larva (Wang et al, [2018]; Yu et al, [2007]). 1 TE teratocytes’ content was microinjected into the early 4th instar P. xylostella larvae. To confirm the function of each synthetic sNPF peptide, 0.005 ng, 0.05 ng, or 0.5 ng of each peptide was injected into the middle 3rd instar P. xylostella larvae in a volume of 0.1 μl/per larva once per day for 3 consecutive days.
For P. xylostella larvae, 1 μl of haemolymph from the moth was diluted 60-fold in cold PBS and subjected to trehalose determination. The fat body of P. xylostella larvae was homogenised in 200 μl of cold PBS. Half of the homogenate was centrifuged at 13,000 rpm for 15 min, and the supernatant was used for protein content determination by Bradford Reagent (Invitrogen). The rest was heated at 70 °C for 5 min followed by centrifuging at 13,000 rpm for 15 min, and the supernatant was used for glycogen determination.
Trehalose content determination was performed by the anthrone sulfate method. 15 μL of the sample was incubated with 15 μL of 1% H2SO4 at 90 °C for 10 min, then 15 μL of 30% KOH was added and incubated at 90 °C for 10 min. Finally, 300 μl of 0.2% anthrone (Sigma-Aldrich) solution in 96% H2SO4 was added and incubated at 90 °C for 10 min. All reactions were stopped by immersion in ice. To create a trehalose standard curve, 15 μl of trehalose standards (Sigma-Aldrich) were treated similarly as a sample. Finally, 100 μl of each sample was added to a 96-well plate. The absorbance of samples was then measured at 630 nm on a SpectraMax® iD5 Multi-Mode Microplate Reader (Molecular Devices), and the trehalose levels were calculated based on the standard curve and normalised by protein content or sample volume.

[5] = system: PxGP, PxHK and PxTPS mRNA; test: qPCR of PxGP, PxHK, PxTPS in larvae injected with synthetic sNPF, venom, CvBV or teratocytes; type: in vivo, Plutella xylostella; conditions: 0.5 ng synthetic peptide, larvae whole body, 4L; n = 7-8; words
From the text: as §1
The quality and concentrations of total RNAs were estimated by electrophoresis and NanoDrop 2000 spectrophotometer (Thermo Fisher Scientific). First-strand cDNAs were synthesised using the ReverTra Ace qPCR RT kit (Toyobo) according to the manufacturer’s instructions. Both β-actin (GenBank Acc. No.: AB282645) and β-tubulin (GenBank Acc. No.: EU127912) of P. xylostella were used as internal controls. Primer sequences used for qPCR analysis are shown in Appendix Table S4. qPCR was performed by using THUNDERBIRD® SYBR qPCR Mix (Toyobo) on the CFX Connect real-time system (Bio-Rad). All qPCR assays were performed using four internal replicates and at least three biological replicates under the following conditions: 95 °C for 60 s and 40 cycles of 95 °C for 15 s and 60 °C for 30 s. Relative gene expression levels were calculated using the 2^−ΔΔCt method.
as §2

“SVRSPSRRLRF-NH2 [sPxsNPF-1, synthetic short neuropeptide F-1 of Plutella xylostella]” was tested. Which “sNPF-induced PxHK expression after PxsNPFR knockdown” value (PxsNPFR [1]) did it give?
Its value is “abolished following dsPxsNPFR treatment”.

What about the “intracellular Ca2+ mobilisation” value (PxsNPFR [2]) of the same substance?
The value was “elicited a rapid and transient increase in intracellular Ca^2+ mobilisation”.

And the “inhibition of forskolin-stimulated cAMP accumulation” value (PxsNPFR [3]; HEK293/PxsNPFR, 10 μM forskolin + 500 μM IBMX, 15 min, various peptide concentrations, result in words)?
Its value is “an inhibitory effect was not observed”.

What about the “G protein coupling of the peptide-PxsNPFR complex” value (PxsNPFR [3]; conclusion from cAMP and Ca2+ assays, words) of the same substance?
The value was “regulates Gq protein-mediated signalling”.

And the “DEGs common to sPxsNPF-1 and sCvsNPF sets” value ([4]; 157 transcripts in both sets)?
The value was 3.6%.

And the “expression of genes involved in Gq activation (PLC, IP3)” value ([4]; RNA-seq after injection, words)?
The value was “significantly upregulated after sPxsNPF-1 injection”.

What about the “effect on haemolymph trehalose level, dose dependence” value (P. xylostella larvae; 0.005, 0.05, 0.5 ng per larva) of the same substance?
Its value is “dependent on the concentration”.

What about the “effect on haemolymph trehalose level” value (P. xylostella larvae; synthetic PxsNPFs, injected into 3M larvae, measured at 4M, high dosage 0.5 ng per larva, n = 4-6) of the same substance?
The value was “increased the haemolymph trehalose level”.

And the “PxGP mRNA expression” value [5]?
The value was “remained unaffected”.

And the “PxHK mRNA expression” value [5]?
Its value is “upregulated”.

And the “PxTPS mRNA expression” value [5]?
The value was “remained unaffected”.
